Laboratory results as given in article PMC8128909, “Characterization of a new bifunctional endo-1,4-β-xylanase/esterase found in the rumen metagenome” (Scientific Reports, 2021).

System: T1, XylR
T1 construct: without predicted 21-residue signal peptide; His6 (C-terminal as printed), pET28a(+), E. coli BL21(DE3); 75 kDa on SDS-PAGE; motifs 159WDVVNEA163, 280TELD283, 624GLSMG628
Assay: spectrophotometric p-nitrophenol release at […] nm, Michaelis-Menten fit
Format: biochemical, uncultured bacterium (Nelore cattle rumen metagenome)
Settings: 0.1 M sodium acetate pH 6.5, 37 °C; substrate 0.75 to 5 mM; esterase activity

Km: 2300 ± 400 µM
SMILES: CC(=O)Oc1ccc([N+](=O)[O-])cc1 [C2, p-nitrofenyl acetate]
